Laboratory results: patent US10986835B2, “Use of 9-tricosene to control Drosophila suzukii” (Globachem NV, priority 2016, dated 2021)

Experiments:
Drosophila suzukii [1] = test: Behavior assay: courtship behavior of wild type 4-day-old males towards perfumed flies; assay type: in vivo; conditions: compound in n-hexane painted onto abdomen; 4 tested conditions (perfumed 1-day-old females, 1-day-old males, 4-day-old females, 4-day-old males) paired with wild type 4-day-old males; filmed two hours; FIG. 1
Protocol: (§1) Drosophila suzukii adults were caught in the wild (Sint-Truiden, Limburg, Belgium). The flies were reared in quarantined facilities at 21° C. on Cornmeal-sucrose-yeast-agar medium.
(§2) All flies were collected within 12 hours of eclosing, after which they were used to make one-day-old samples or aged to four days old. The four-day-old socially nave flies were aged separated from the other sex, contrary to the socially experienced flies, which were aged, mixed with the other sex.
(§3) N-hexane (95%), n-heneicosane (98%), n-tricosane (98%), (Z)-7-tricosene (98%) and (Z)-9-tricosene (97%) were bought from Thermo-Fischer and Sigma Aldrich. (Z)-5-tricosene (99%) and 2-methyloctacosane (95%) were synthesized by a hired company, Ecosynth (Gent, Belgium). These compounds were dissolved in n-hexane (95%) and painted onto the abdomen of Drosophila suzukii flies using number 2 paintbrushes. The four-day-old flies were perfumed 24 hours prior to testing, one-day-old flies 1 hour prior to testing.
Behavior assays were performed in a room with regulated temperature (21° C.) and always at the same time (10 h30). The perfumed Drosophila suzukii flies were put individually with a wild type four-day-old Drosophila suzukii male in a circular arena (3 cm diameter). Every couple was filmed for two hours, due to the low activity rate of the species, using Sony Handycams CX240. Subsequently these videos were analyzed for courtship behavior and copulation based on Mazzoni et al. 2013 (Plos One 8(11): e80708). The behavioral data was analyzed using a contingency table and followed by t-tests, as well as one-way ANOVA tests for the continuous data.
Behavior experiments were performed as follows. Four different conditions of flies were perfumed: one-day-old females, one-day-old males, four-day-old females and four-day-old males. These perfumed flies were paired with wild type four-day-old males. Subjects were scored for both courtship modules as well as copulation. As a control the solvent for the perfumes (n-hexane) was used.

Drosophila suzukii [2] = test: Behavior assay: copulation between wild type 4-day-old males and perfumed 4-day-old females; assay type: in vivo; conditions: perfumed four-day-old females paired with wild type four-day-old males; filmed two hours; FIG. 3
Protocol: as §1, §2
as §3, with “The four-day-old flies were perfumed 24 hours prior to testing, one-day-old flies 1 hour prior to testing.” left out
Behavior assays were performed in a room with regulated temperature (21° C.) and always at the same time (10 h30). […] Subsequently these videos were analyzed for courtship behavior and copulation based on Mazzoni et al. 2013 (Plos One 8(11): e80708). The behavioral data was analyzed using a contingency table and followed by t-tests, as well as one-way ANOVA tests for the continuous data.
Behavior experiments were performed as follows. […] Subjects were scored for both courtship modules as well as copulation. […]

How did the “effect on occurrence of courtship” value (Drosophila suzukii [1]) turn out when `CCCCCCCCCCCCCCCCCCCCCCCCCCC(C)C` [2-methyloctacosane] was run?
Its value is “no significant differences”.

How did the “effect on occurrence of courtship” value (Drosophila suzukii [1]) turn out when `CCCC/C=C\CCCCCCCCCCCCCCCCC` [(Z)-5-tricosene] was run?
Its value is “no significant differences”.

Which results are given for `CCCCCC/C=C\CCCCCCCCCCCCCCC` [(Z)-7-tricosene]?
effect on occurrence of copulation (Drosophila suzukii [2]): significantly decreased; effect on occurrence of courtship (Drosophila suzukii [1]): no significant differences

For `CCCCCCCC/C=C\CCCCCCCCCCCCC` [(Z)-9-tricosene], which “effect on occurrence of copulation” value (Drosophila suzukii [2]) is on record?
The value was “significantly decreased”.

What about the “effect on occurrence of courtship” value (Drosophila suzukii [1]) of the same compound?
The value was “no significant differences”.

With `CCCCCCCCCCCCCCCCCCCCC` [n-heneicosane] as the compound, how does the “effect on occurrence of courtship” value (Drosophila suzukii [1]) read?
The value was “no significant differences”.

With `CCCCCCCCCCCCCCCCCCCCCCC` [n-tricosane] as the compound, how does the “effect on occurrence of courtship” value (Drosophila suzukii [1]) read?
Its value is “no significant differences”.
